Data taken from publication PMC12018048, “Intranasal kisspeptin administration rapidly stimulates gonadotropin release in humans” (eBioMedicine, 2025).

Tested on: plasma LH
Test: Intranasal kisspeptin-54, plasma LH in adult C57BL/6J male mice
Format: in vivo, mouse
Conditions: intranasal, 25 min post administration, N = 2
Experimental: Saline (placebo) or kisspeptin-54 were intranasally administered using a customised and unsharpened 2 mm long and 0.3 mm wide hypodermic needle (BD PrecisionGlide™; 30G; ref. 305106). Male mice were restrained and a single volume of 30 μL of the solution was delivered in one randomly chosen nostril with either 0.9% saline or different concentrations of kisspeptin-54 (1, 3, 12.8, 30, or 50 nM; equivalent to 0.001–0.05 nmol/kg). The protocol involved N = 5 mice per group, except concentrations 12.8 nM where N = 6 and 30 nM where N = 7. […] LH levels were assessed using a tail-tip serial blood sampling as previously reported.[64]^,[65] Briefly, samples containing 4 μL of whole blood were collected every 10 min over a 70-min-long period from each animal. The first sampling point was taken as baseline LH level (−5 min), and saline or kisspeptin-54 were administered at timepoint 0 min. Whole blood was collected into Eppendorf tubes pre-loaded with 50 μL of 0.1 M phosphate-buffered saline (PBS)-0.05% Tween, thoroughly mixed, and snap-frozen with dry ice and stored at −80 °C.
LH levels were measured using an established in-house and ultrasensitive mouse LH ELISA method as previously validated.[66] A primary coating antibody (bovine LHβ subunit, 518B7; L. Sibley; University of California, UC Davis, RRID AB_2756886) was used at a 1:1000 dilution in combination with a detection primary antibody (rabbit LH antiserum, AFP240580Rb, RRID AB_2665533; NIDDK- NHPP) used at 1:10,000 dilution, and a secondary horseradish peroxidase-conjugated antibody (goat anti-rabbit; Vector Laboratories, PI-1000, RRID AB_2336198) used at 1:10,000 dilution. The assay standard curve used a mouse LH-RP (AFP5306A, A. F. Parlow, National Hormone and Peptide Program; supplied by Golden West BioSolutions, California, USA; catalogue # TLIA1053.03). The assay sensitivity of this LH ELISA was 0.04 ng/mL, intra-assay coefficient of variation 4.1%, and inter-assay coefficient of variation 7.3%.
Statistical analyses were performed using GraphPad Prism (version 9.4.1). Data are presented as mean ± SEM. Normality of the data was determined using the Shapiro–Wilk test. The analysis considered increment in LH levels when average post-administration values were above significance (P < 0.05) compared to basal levels (−5 min) using repeated measures two-way ANOVA with Fishers least significant difference (LSD) test. Integrated LH response to kisspeptin-54 administration as indicated using the area under the curve (AUC) analysis when all peaks were above baseline values. The difference in AUC between groups was compared by one-way ANOVA with Fisher’s LSD test. In all cases, P < 0.05 was considered statistically significant.

With “Dye-C-GTSLSPPPESSGSRQQPGLSAPHSRQIPAPQGAVLVQREKDLPNYNWNSFGLRF [kisspeptin-54-D2, Kisspeptin-54 labelled with a D2 fluorescent probe, developed by Cisbio Bioassays]” the “Plasma LH response to the fluorescently tagged peptide” value was “robust LH increase”.
